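In this assay, cells in 96-well plates receive the compound at five concentrations for 48 hours. Endpoints are linearly interpolated between the surrounding concentrations. GI50 is the concentration that inhibits growth by half.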 Active and inactive are the calls of the source. No stated cut-off is given here; in the data, active = GI50 up to about 1.1 µM and inactive = higher.
What was measured:
Experiment in all cases: inhibition of tumour cell growth, NCI panel, 48 h
[1] = test system: XF498
[2] = test system: SF-268
[3] = test system: RXF 393
[4] = test system: UACC-62
[5] = test system: UACC-257
[6] = test system: NCI-H522
[7] = test system: SK-OV-3
[8] = test system: HL-60
[9] = test system: KM-20L2
[10] = test system: TK-10
[11] = test system: M19-MEL
[12] = test system: U-251
[13] = test system: SNB-19
[14] = test system: SK-MEL-5
[15] = test system: HCT-116
[16] = test system: SW-620
[17] = test system: SF-295
[18] = test system: LXFL 529
[19] = test system: HOP-92
[20] = test system: K562
[21] = test system: SN12C
[22] = test system: HCT-15
[23] = test system: 786-0
[24] = test system: CCRF-CEM
[25] = test system: SF-539
[26] = test system: EKVX
[27] = test system: HOP-62
[28] = test system: OVCAR-3
[29] = test system: Malme-3M
[30] = test system: SK-MEL-28
[31] = test system: A498
[32] = test system: HT-29
[33] = test system: OVCAR-8
[34] = test system: CAKI-1
[35] = test system: OVCAR-4
[36] = test system: SK-MEL-2
[37] = test system: OVCAR-5
[38] = test system: IGROV-1
[39] = test system: DMS-114
[40] = test system: DMS-273
[41] = test system: HCC 2998
[42] = test system: RXF 631
[43] = test system: KM12
[44] = test system: NCI-H23
[45] = test system: HOP-18
[46] = test system: SNB-75
[47] = test system: M14
[48] = test system: RPMI-8226
[49] = test system: ACHN
[50] = test system: NCI-H460
[51] = test system: LOX IMVI
[52] = test system: MOLT-4
[53] = test system: UO-31
[54] = test system: DLD-1
[55] = test system: NCI-H226
[56] = test system: A549
[57] = test system: SNB-78
[58] = test system: COLO 205
[59] = test system: SR

With `Clc1ccc(CN2COc3c(cc(Cl)c4cccnc34)C2)cc1` the GI50 [1] was 0.973 µM (active), the GI50 [2] was 2.93 µM (inactive) and the GI50 [3] was 1.58 µM (inactive). The GI50 [4] was 1.55 µM (inactive), the GI50 [5] was 2.84 µM (inactive) and the GI50 [6] was 1.6 µM (inactive). For the same molecule, the GI50 [7] was 2.77 µM (inactive), the GI50 [8] was 0.546 µM (active) and the GI50 [9] was 14.3 µM (inactive). The GI50 [10] was 4.57 µM (inactive), the GI50 [11] was 2.28 µM (inactive) and the GI50 [12] was 2.32 µM (inactive). The GI50 [13] was 4.24 µM (inactive), the GI50 [14] was 2.26 µM (inactive) and the GI50 [15] was 2.15 µM (inactive). The GI50 [16] was 2.94 µM (inactive), the GI50 [17] was 2.52 µM (inactive) and the GI50 [18] was 1.36 µM (inactive). For the same molecule, the GI50 [19] was 3.64 µM (inactive), the GI50 [20] was 1.52 µM (inactive) and the GI50 [21] was 4.23 µM (inactive). The GI50 [22] was 0.456 µM, the GI50 [23] was 2.74 µM (inactive) and the GI50 [24] was 1.79 µM (inactive). For the same molecule, the GI50 [25] was 2.03 µM (inactive), the GI50 [26] was 4.7 µM (inactive) and the GI50 [27] was 1.5 µM (inactive). The GI50 [28] was 1.99 µM (inactive), the GI50 [29] was 2.34 µM (inactive) and the GI50 [30] was 2.57 µM (inactive). The GI50 [31] was 12.1 µM (inactive), the GI50 [32] was 11.9 µM (inactive) and the GI50 [33] was 2.04 µM (inactive). The GI50 [34] was 2.62 µM (inactive), the GI50 [35] was 3.33 µM (inactive) and the GI50 [36] was 1.85 µM (inactive). The GI50 [37] was 2.24 µM (inactive), the GI50 [38] was 2.36 µM (inactive) and the GI50 [39] was 1.84 µM (inactive). The GI50 [40] was 1.78 µM (inactive), the GI50 [41] was 4.3 µM (inactive) and the GI50 [42] was 10.3 µM (inactive). The GI50 [43] was 2.37 µM (inactive), the GI50 [44] was 2.57 µM (inactive) and the GI50 [45] was 3.96 µM (inactive). The GI50 [46] was 3.4 µM (inactive), the GI50 [47] was 1.68 µM (inactive) and the GI50 [48] was 1.16 µM (inactive). The GI50 [49] was 1.74 µM (inactive), the GI50 [50] was 2.29 µM (inactive) and the GI50 [51] was 1.38 µM (inactive). The GI50 [52] was 1.7 µM (inactive), the GI50 [53] was 0.649 µM (active) and the GI50 [54] was 2.52 µM (inactive). The GI50 [55] was 4.06 µM (inactive), the GI50 [56] was 2.39 µM (inactive) and the GI50 [57] was 4.79 µM (inactive). The GI50 [58] was 16.2 µM (inactive) and the GI50 [59] was 1.91 µM (inactive).
For `CN1CCCCC(C(O)(c2ccccc2)c2ccccc2)C1=O` (stereo not drawn), the GI50 [1] was > 100 µM (inactive), the GI50 [2] was > 100 µM (inactive) and the GI50 [3] was 69 µM (inactive). For the same molecule, the GI50 [4] was > 100 µM (inactive), the GI50 [5] was > 100 µM (inactive) and the GI50 [6] was > 100 µM (inactive). The GI50 [7] was > 100 µM (inactive), the GI50 [9] was > 100 µM (inactive) and the GI50 [10] was > 100 µM (inactive). For the same molecule, the GI50 [11] was > 100 µM (inactive), the GI50 [12] was > 100 µM (inactive) and the GI50 [13] was > 100 µM (inactive). The GI50 [14] was > 100 µM (inactive), the GI50 [15] was 24.8 µM (inactive) and the GI50 [16] was 11.9 µM (inactive). For the same molecule, the GI50 [17] was > 100 µM (inactive), the GI50 [18] was 81.7 µM (inactive) and the GI50 [19] was > 100 µM (inactive). For the same molecule, the GI50 [20] was > 100 µM (inactive), the GI50 [21] was > 100 µM (inactive) and the GI50 [22] was 16.3 µM. The GI50 [23] was > 100 µM (inactive), the GI50 [24] was 85.5 µM (inactive) and the GI50 [25] was > 100 µM (inactive). The GI50 [26] was > 100 µM (inactive), the GI50 [27] was > 100 µM (inactive) and the GI50 [28] was > 100 µM (inactive). The GI50 [29] was > 100 µM (inactive), the GI50 [30] was > 100 µM (inactive) and the GI50 [31] was > 100 µM (inactive). For the same molecule, the GI50 [32] was > 100 µM (inactive), the GI50 [33] was > 100 µM (inactive) and the GI50 [35] was > 100 µM (inactive). For the same molecule, the GI50 [36] was > 100 µM (inactive), the GI50 [37] was > 100 µM (inactive) and the GI50 [38] was > 100 µM (inactive). For the same molecule, the GI50 [39] was 86.1 µM (inactive), the GI50 [40] was 44.1 µM (inactive) and the GI50 [41] was > 100 µM (inactive). The GI50 [42] was 42.4 µM (inactive), the GI50 [43] was > 100 µM (inactive) and the GI50 [44] was > 100 µM (inactive). The GI50 [45] was > 100 µM (inactive), the GI50 [46] was > 100 µM (inactive) and the GI50 [47] was > 100 µM (inactive). For the same molecule, the GI50 [48] was 24.1 µM (inactive), the GI50 [49] was > 100 µM (inactive) and the GI50 [50] was 80 µM (inactive). The GI50 [51] was > 100 µM (inactive), the GI50 [52] was > 100 µM (inactive) and the GI50 [53] was > 100 µM (inactive). For the same molecule, the GI50 [54] was 39.4 µM (inactive), the GI50 [55] was > 100 µM (inactive) and the GI50 [56] was > 100 µM (inactive). The GI50 [57] was > 100 µM (inactive), the GI50 [58] was 56.2 µM (inactive) and the GI50 [59] was > 100 µM (inactive).
For `CCOC(=O)/C=C(\C)c1ccc(C)cc1C`, the GI50 [1] was 23.4 µM (inactive), the GI50 [2] was > 100 µM (inactive) and the GI50 [3] was 14.4 µM (inactive). For the same molecule, the GI50 [5] was > 100 µM (inactive), the GI50 [8] was 2.89 µM (inactive) and the GI50 [9] was > 100 µM (inactive). The GI50 [10] was 33.8 µM (inactive), the GI50 [12] was > 100 µM (inactive) and the GI50 [13] was > 100 µM (inactive). The GI50 [14] was 34.3 µM (inactive), the GI50 [15] was > 100 µM (inactive) and the GI50 [16] was 17.8 µM (inactive). For the same molecule, the GI50 [17] was > 100 µM (inactive), the GI50 [18] was 14.6 µM (inactive) and the GI50 [19] was 29.8 µM (inactive). For the same molecule, the GI50 [20] was 45.1 µM (inactive), the GI50 [21] was 39.8 µM (inactive) and the GI50 [22] was 29.9 µM. The GI50 [24] was 49.2 µM (inactive), the GI50 [25] was > 100 µM (inactive) and the GI50 [26] was > 100 µM (inactive). The GI50 [29] was 26.1 µM (inactive), the GI50 [30] was 21.9 µM (inactive) and the GI50 [31] was > 100 µM (inactive). For the same molecule, the GI50 [32] was > 100 µM (inactive), the GI50 [33] was > 100 µM (inactive) and the GI50 [34] was > 100 µM (inactive). For the same molecule, the GI50 [35] was > 100 µM (inactive), the GI50 [36] was 45.2 µM (inactive) and the GI50 [37] was > 100 µM (inactive). The GI50 [38] was > 100 µM (inactive), the GI50 [39] was > 100 µM (inactive) and the GI50 [40] was > 100 µM (inactive). For the same molecule, the GI50 [41] was > 100 µM (inactive), the GI50 [42] was > 100 µM (inactive) and the GI50 [43] was 72.3 µM (inactive). The GI50 [44] was 45.4 µM (inactive), the GI50 [45] was 45 µM (inactive) and the GI50 [46] was 75.3 µM (inactive). The GI50 [47] was > 100 µM (inactive), the GI50 [48] was 7.28 µM (inactive) and the GI50 [49] was > 100 µM (inactive). The GI50 [50] was > 100 µM (inactive), the GI50 [51] was 16.3 µM (inactive) and the GI50 [52] was > 100 µM (inactive). For the same molecule, the GI50 [53] was > 100 µM (inactive), the GI50 [54] was 15.7 µM (inactive) and the GI50 [55] was > 100 µM (inactive). For the same molecule, the GI50 [56] was > 100 µM (inactive), the GI50 [57] was 38.1 µM (inactive) and the GI50 [58] was > 100 µM (inactive). The GI50 [59] was 4.46 µM (inactive).

Reference: ChEMBL document CHEMBL1201862, “PubChem BioAssay data set” (2004)
